{
  "source": "patent US10092644B2",
  "about": "“Use of fluorinated cyclic dinucleotides as oral vaccine adjuvants” (BROCK UNIVERSITY, priority 2013, dated 2018)",
  "key": {"[1]": {"system": "C. difficile flagellin", "test": "Oral immunization with C. difficile flagellin admixed with adjuvant; ELISA for flagellin-specific antibodies", "assay_type": "in vivo, BALB/c mice", "conditions": "day 35"}, "[2]": {"system": "splenocytes stimulated by HPCE", "conditions": "mouse, in vivo, po"}, "[3]": {"system": "H. pylori cell-free sonicate extract (HPCE)", "design": "species or system C57BL/6 mice", "conditions": "mouse, in vivo, po"}, "[4]": {"system": "recombinant PsaA protein of S. pneumoniae", "test": "Intranasal immunization of mice with PsaA admixed with adjuvant; ELISA for PsaA-specific IgA and IgG isotypes", "assay_type": "in vivo, BALB/c mice", "from_the_text": "Mice. Six to eight-week-old female BALB/c or C57BL/6 mice were purchased from Charles Rivers Laboratories (St. Constant, Quebec). The animals were housed under specific-pathogen-free conditions in a federally licensed small animal containment level 2 facility, and given free access to sterile water and certified mouse chow. The animals were maintained and used in accordance with the recommendations of the Canadian Council on Animal Care Guide to the Care and Use of Experimental Animals, and the experimental procedures were approved by the institutional animal care committee.\n(§1) Intranasal or oral immunization in mice. For intranasal immunization, mice were lightly anesthetized under isofluorane. On day 0, 14 and 21, groups of mice (n=5) were inoculated with 50 μl of various vaccine preparations or controls as detailed in Examples 1-5. For oral immunization, various vaccine preparations or controls in 0.2 ml volume were administered by gavage via an 18-gauge feeding needle.\nAt day 28, blood and mucosal samples (fecal pellets or/and vaginal wash) were collected as described elsewhere (Patel G B, Zhou H, Ponce A, Chen W (2007). Mucosal and systemic immune responses by intranasal immunization using archaeal lipid-adjuvanted vaccines. Vaccine 25: 8622-8636.). In some experiments, nasal wash samples were also collected at the end of experiment. For both the vaginal and nasal wash, the volume of the lavage fluid recovered from each mouse was recorded. Since the recovery of lavage volumes among different mice in our study were very similar (about 90%), the small variation among individual samples was not adjusted. All samples were stored at −20° C. until assay.\nVaginal wash samples were collected by slowly injecting and withdrawing (3-4 times) 50 μl PBS (pH 7.2) into the vagina of conscious mice, using a P100 pipette. The volume of the vaginal lavage fluid recovered from each mouse was recorded.\nEnzyme-linked immunosorbent assay (ELISA) for PsaA-specific IgA and IgG isotypes. Levels of PsaA-specific antibodies in serum and mucosal samples were measured by an enzyme-linked immunosorbent assay (ELISA) modified from a previously described procedure (Yan H, Kuo Lee R, Tram K, Qiu H, Zhang J, Patel G B, Chen W. 3′,5′-Cyclic diguanylic acid elicits mucosal immunity against bacterial infection. Biochemical and Biophysical Research Communications, 2009; 387(3):581-4.). Briefly, 96-well Immunolon 2^R microplates (Thermo Electron Corporation, Milford, Mass.) were coated with 0.5 μg PsaA/well in 100 μl of 0.015 M sodium carbonate and 0.035 M sodium bicarbonate buffer (pH 9.6) at 4° C. overnight. All the subsequent incubations were carried out at room temperature. The wells were blocked by incubation with 5% bovine serum in PBS for 1 h, and then rinsed three times with PBS-0.05% Tween 20. Duplicates of 100 μl pre-diluted samples were added to the wells. Sample dilutions were as follows: 1:2 for fecal extracts and nasal washes, 1:2000 for serum IgG1, 1:500 for serum IgG2a and 1:50 for serum IgA. After the plates were incubated for 3 h, alkaline phosphatase-conjugated goat antibodies specific for mouse IgA, IgG1 and IgG2a (all from Caltag Laboratories, Burlingame, Calif.) were added and incubated for 1 h. Color reactions were developed by the addition of p-nitrophenyl phosphate (pNPP) substrate (KPL, Inc., Gaithersburg, Md.), and optical density was measured at 405 nm with an automated ELISA plate reader (Multiskan Ascent, Thermo Labsystems, Vantaa, Finland). Pooled samples collected from mice that had been intranasally immunized with the PsaA+CT or from the naïve mice were used as positive or negative controls respectively.\nTo determine if 2′-F-c-di-GMP can elicit mucosal immune responses to microbial (bacterial and viral) antigens, groups of BALB/c mice were intranasally (i.n.) immunized with 2 μg recombinant PsaA protein of S. pneumoniae admixed with 2.5 μg 2′-F-c-di-GMP, 2.5 μg c-di-GMP, or 10 μg c-di-GMP at day 0, 14 and 21. […]"}, "[5]": {"system": "S. pneumoniae", "test": "Mouse S. pneumoniae nasopharyngeal colonization model after intranasal immunization", "assay_type": "in vivo, mice", "method": "as §1\nIntranasal challenge of mice with S. pneumoniae. Fresh inocula were prepared for each experiment from a frozen stock of S. pneumoniae (type 14). […] The actual inoculum concentrations were determined by plating 10-fold serial dilutions on chocolate agar. Inoculated mice were sacrificed 3 days later and the nasal cavity was lavaged with 0.5 ml lavage fluid and aliquots (100 μl) of 10-fold serial dilutions of the lavage fluids were cultured, in duplicates, on chocolate agar plates to quantify the number of viable organisms.\nNext, it was determined if the mucosal immune responses induced by the 2′-F-c-di-GMP adjuvanted vaccine are protective against mucosal infections in the well-established mouse S. pneumoniae colonization model. […] Mice were sacrificed 3 days after challenge, and the nasopharyngeal tract was lavaged and bacterial numbers in the nasal wash were determined."}, "[6]": {"system": "Listeria flagellin", "test": "Oral immunization with Listeria flagellin admixed with adjuvant; ELISA for flagellin-specific antibodies", "assay_type": "in vivo, BALB/c mice", "conditions": "day 35"}, "[7]": {"system": "H. pylori SS1", "test": "Mouse model of H. pylori gastric colonization after oral immunization", "assay_type": "in vivo, mice"}, "[8]": {"system": "pneumococcal surface adhesion A (Psa)", "conditions": "mice, intranasally, Psa together with c-di-GMP (Yan et al. 2009); cited from earlier work"}, "[9]": {"conditions": "oral 30 μg C. difficile flagellin + 75 μg adjuvant"}, "[10]": {"conditions": "i.n. 2 μg PsaA admixed with 2.5 μg adjuvant at day 0, 14 and 21, samples day 28, FIG. 1"}, "[11]": {"conditions": "i.n. with 2 μg PsaA, comparator 2.5 μg or 10 μg c-di-GMP"}, "[12]": {"conditions": "oral 50 μg Listeria flagellin + 75 μg adjuvant"}},
  "data": [
    {"compound": "2′-F-c-di-GMP", "values": [
      {"measurement": "IgG1 response in the serum compared with sham-immunized mice", "setting": "[1]; [9]", "value": "substantially higher"},
      {"measurement": "IgG2a response in the serum compared with sham-immunized mice", "setting": "[1]; [9]", "value": "substantially higher"},
      {"measurement": "antigen-specific IgA response in feces compared with sham-immunized mice", "setting": "[1]; [9]", "value": "substantially higher"},
      {"measurement": "C. difficile flagellin-specific IgA in feces", "setting": "[1]; oral 30 μg C. difficile flagellin admixed with 75 μg adjuvant day 0, 14, 21, FIG. 6", "value": "substantial amount"},
      {"measurement": "IFN-γ produced by splenocytes compared to cells from CT-immunized mice", "setting": "[2]", "value": "even higher"},
      {"measurement": "IFN-γ produced by splenocytes compared to sham-immunized mice", "setting": "[2]", "value": "substantially higher"},
      {"measurement": "IL-2 produced by splenocytes compared to sham-immunized mice", "setting": "[2]", "value": "substantially higher"},
      {"measurement": "IL-17 produced by splenocytes compared to sham-immunized mice", "setting": "[2]", "value": "substantially higher"},
      {"measurement": "IgG2a response in the serum compared with sham-immunized mice", "setting": "[3]", "value": "substantially higher"},
      {"measurement": "antigen-specific IgA level in feces", "setting": "[3]", "value": "substantial amount"},
      {"measurement": "antigen-specific IgA level in serum", "setting": "[3]", "value": "substantial amount"},
      {"measurement": "antigen-specific IgA response in feces compared with sham-immunized mice", "setting": "[3]", "value": "substantially higher"},
      {"measurement": "antigen-specific serum IgG1 level", "setting": "[3]", "value": "substantial amount"},
      {"measurement": "antigen-specific serum IgG2a level", "setting": "[3]", "value": "substantial amount"},
      {"measurement": "PsaA-specific IgA in feces", "setting": "[4]; [10]", "value": "high level"},
      {"measurement": "PsaA-specific IgA in nasal wash", "setting": "[4]; [10]", "value": "high level"},
      {"measurement": "PsaA-specific IgA in serum", "setting": "[4]; [10]", "value": "high level"},
      {"measurement": "PsaA-specific serum IgG1 level", "setting": "[4]; [10]", "value": "high level"},
      {"measurement": "PsaA-specific serum IgG2a level", "setting": "[4]; [10]", "value": "high level"},
      {"measurement": "IgG2a response in the serum compared to parental c-di-GMP", "setting": "[4]; [11]", "value": "stronger"},
      {"measurement": "antigen-specific IgA response in feces compared to parental c-di-GMP", "setting": "[4]; [11]", "value": "stronger"},
      {"measurement": "antigen-specific IgA response in vaginal washings compared to parental c-di-GMP", "setting": "[4]; [11]", "value": "stronger"},
      {"measurement": "magnitude of reduction of S. pneumoniae colonization relative to PsaA+CT immunized mice", "setting": "[5]; PsaA+2′-F-c-di-GMP i.n., PsaA+CT data from Yan et al. 2009", "value": "comparable"},
      {"measurement": "nasopharyngeal colonization of S. pneumoniae compared to sham-immunized mice", "setting": "[5]; i.n. immunization, i.n. challenge 4.55×10^6 CFU at day 35, nasal wash bacterial numbers 3 days after challenge, P<0.05 for adjuvanted group, FIG. 2", "value": "significantly reduced colonization"},
      {"measurement": "IgG1 response in the serum compared with sham-immunized mice", "setting": "[6]; [12]", "value": "substantially higher"},
      {"measurement": "IgG2a response in the serum compared with sham-immunized mice", "setting": "[6]; [12]", "value": "substantially higher"},
      {"measurement": "antigen-specific IgA response in feces compared with sham-immunized mice", "setting": "[6]; [12]", "value": "substantially higher"},
      {"measurement": "Listeria flagellin-specific IgA in feces", "setting": "[6]; oral 50 μg Listeria flagellin admixed with 75 μg adjuvant day 0, 14, 21, FIG. 6", "value": "small amount"},
      {"measurement": "magnitude of reduction of H. pylori colonization relative to HPCE adjuvanted with CT", "setting": "[7]; HPCE+2′-F-c-di-GMP vs HPCE+CT, oral", "value": "comparable"},
      {"measurement": "bacterial burdens in the gastric mucosa compared to sham (PBS)-immunized mice", "setting": "[7]; both low or high doses of HPCE + 2′-F-c-di-GMP, oral", "value": "significantly reduced bacterial burdens"},
      {"measurement": "gastric colonization of H. pylori compared to sham-immunized mice", "setting": "[7]; oral immunization, oral challenge 10^8 CFU H. pylori SS1 three times from day 35, stomach 6 weeks after first challenge, P<0.05 for adjuvanted group, FIG. 5", "value": "significantly reduced colonization"}
    ]},
    {"compound": "Nc1nc2c(ncn2C2OC3COP(=O)(O)OC4C(COP(=O)(O)OC3C2O)OC(n2cnc3c(=O)[nH]c(N)nc32)C4O)c(=O)[nH]1", "note": "(centres unmarked) [c-di-GMP, 3′,5′-cyclic diguanylic acid]", "values": [
      {"measurement": "antigen specific antibody response", "setting": "[8]", "value": "enhanced"}
    ]}
  ]
}
